Laboratory results as given in ChEMBL document CHEMBL5233229, “Recent advances in the development of ubiquitin-specific-processing protease 7 (USP7) inhibitors” (Eur J Med Chem, 2020).
Values belong to the compound of their own block, whether it stands above or below them.

Assays:
[1] = tested on: HCT-116; assay: Anticancer activity against human HCT-116 cells assessed as cell growth inhibition incubated for 6 days by MTT assay; format: functional; details: HCT-116, 144 h, time 6 day, read-out: LD50 (the source's name)
[2] = Inhibition of USP2a (unknown origin); parameters: species or system Homo sapiens
[3] = target: T1, Ubiquitin carboxyl-terminal hydrolase 47 (Homo sapiens, UniProt Q96K76); assay: Inhibition of USP47 (unknown origin)
T1 sequence (Q96K76 whole entry): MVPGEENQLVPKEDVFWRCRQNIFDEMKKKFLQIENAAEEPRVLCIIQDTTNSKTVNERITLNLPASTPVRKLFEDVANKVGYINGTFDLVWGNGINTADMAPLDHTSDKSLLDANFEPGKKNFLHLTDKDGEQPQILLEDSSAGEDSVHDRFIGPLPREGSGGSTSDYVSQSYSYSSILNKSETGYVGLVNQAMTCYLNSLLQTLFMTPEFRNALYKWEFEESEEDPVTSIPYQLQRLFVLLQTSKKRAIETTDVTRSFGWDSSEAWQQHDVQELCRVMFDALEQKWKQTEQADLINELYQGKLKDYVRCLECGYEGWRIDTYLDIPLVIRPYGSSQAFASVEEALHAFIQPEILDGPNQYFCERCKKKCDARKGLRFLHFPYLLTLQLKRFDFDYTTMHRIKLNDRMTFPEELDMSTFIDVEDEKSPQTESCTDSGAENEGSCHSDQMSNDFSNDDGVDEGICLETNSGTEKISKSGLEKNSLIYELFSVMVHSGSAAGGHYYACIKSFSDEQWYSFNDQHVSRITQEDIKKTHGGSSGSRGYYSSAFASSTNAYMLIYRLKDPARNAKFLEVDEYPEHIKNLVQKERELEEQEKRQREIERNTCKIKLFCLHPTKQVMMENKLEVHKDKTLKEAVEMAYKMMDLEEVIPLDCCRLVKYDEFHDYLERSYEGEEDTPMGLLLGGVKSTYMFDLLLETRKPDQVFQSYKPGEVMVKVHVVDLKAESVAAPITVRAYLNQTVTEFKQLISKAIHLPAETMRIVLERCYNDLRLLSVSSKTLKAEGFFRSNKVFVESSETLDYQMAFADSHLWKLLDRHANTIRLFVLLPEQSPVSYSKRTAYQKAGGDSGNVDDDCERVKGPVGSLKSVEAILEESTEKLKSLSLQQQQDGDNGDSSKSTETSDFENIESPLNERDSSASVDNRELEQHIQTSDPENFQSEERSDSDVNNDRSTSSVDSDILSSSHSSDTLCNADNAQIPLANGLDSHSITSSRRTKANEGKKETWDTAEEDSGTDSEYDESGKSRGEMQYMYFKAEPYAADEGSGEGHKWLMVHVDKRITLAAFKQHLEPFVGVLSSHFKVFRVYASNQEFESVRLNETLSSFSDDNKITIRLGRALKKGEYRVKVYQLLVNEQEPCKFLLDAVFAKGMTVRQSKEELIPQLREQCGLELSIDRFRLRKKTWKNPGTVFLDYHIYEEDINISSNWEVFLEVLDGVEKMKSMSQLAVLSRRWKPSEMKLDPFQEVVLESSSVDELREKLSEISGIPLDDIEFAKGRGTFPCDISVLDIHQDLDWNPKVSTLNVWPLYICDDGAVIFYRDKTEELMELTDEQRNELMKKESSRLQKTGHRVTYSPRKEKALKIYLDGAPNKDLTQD

[4] = target: T2, Ubiquitin carboxyl-terminal hydrolase 7 (Homo sapiens, UniProt Q93009); assay: Inhibition of human USP7 using ubiquitin-Rh110 as substrate incubated for 30 mins by Fluorometric plate reader analysis
[5] = target: T2, Ubiquitin carboxyl-terminal hydrolase 7; assay: Inhibition of human USP7 using UbA10 as substrate incubated for 10 mins by TR-FRET assay
[6] = target: T2, Ubiquitin carboxyl-terminal hydrolase 7; assay: Inhibition of USP7 (unknown origin) by Ub-PLA2 assay
[7] = target: T2, Ubiquitin carboxyl-terminal hydrolase 7; assay: Inhibition of human USP7 using Ub-AMC as substrate

T2 sequence (Q93009 whole entry): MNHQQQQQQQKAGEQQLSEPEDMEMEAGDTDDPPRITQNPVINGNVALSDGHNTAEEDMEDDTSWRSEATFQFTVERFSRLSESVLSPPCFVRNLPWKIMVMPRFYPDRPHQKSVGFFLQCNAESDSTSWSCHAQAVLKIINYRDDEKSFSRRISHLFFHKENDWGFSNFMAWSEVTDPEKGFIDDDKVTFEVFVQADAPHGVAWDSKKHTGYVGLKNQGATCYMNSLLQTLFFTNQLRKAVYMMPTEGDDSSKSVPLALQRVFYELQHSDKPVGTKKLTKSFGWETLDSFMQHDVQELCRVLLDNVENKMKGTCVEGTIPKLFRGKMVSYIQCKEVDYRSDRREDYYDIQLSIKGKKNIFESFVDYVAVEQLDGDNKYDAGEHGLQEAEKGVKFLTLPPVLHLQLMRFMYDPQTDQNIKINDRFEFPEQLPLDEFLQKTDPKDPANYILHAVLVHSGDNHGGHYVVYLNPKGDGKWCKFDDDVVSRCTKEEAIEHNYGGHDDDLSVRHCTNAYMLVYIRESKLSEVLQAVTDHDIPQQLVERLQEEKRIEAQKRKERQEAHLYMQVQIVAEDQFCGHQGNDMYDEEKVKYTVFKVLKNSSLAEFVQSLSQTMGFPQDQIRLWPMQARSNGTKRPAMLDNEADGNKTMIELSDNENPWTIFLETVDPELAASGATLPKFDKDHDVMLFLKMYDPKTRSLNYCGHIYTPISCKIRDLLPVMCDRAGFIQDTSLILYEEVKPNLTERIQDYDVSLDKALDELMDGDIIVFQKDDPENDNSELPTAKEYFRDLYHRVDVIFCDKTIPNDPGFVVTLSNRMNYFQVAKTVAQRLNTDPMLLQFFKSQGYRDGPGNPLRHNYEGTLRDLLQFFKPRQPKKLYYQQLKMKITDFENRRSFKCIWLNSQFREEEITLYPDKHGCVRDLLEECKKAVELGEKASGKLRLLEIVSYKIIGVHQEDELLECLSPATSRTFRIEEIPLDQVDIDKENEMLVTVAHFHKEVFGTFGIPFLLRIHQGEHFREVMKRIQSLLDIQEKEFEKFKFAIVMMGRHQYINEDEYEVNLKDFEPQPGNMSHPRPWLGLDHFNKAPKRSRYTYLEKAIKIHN

SMILES: C[C@H](CC(=O)NCC#N)[C@H]1CC[C@H]2[C@@H]3CC[C@@H]4C[C@H](O)CC[C@]4(C)[C@H]3C[C@H](O)[C@]12C
- CC50 [1]: 28 µM
- IC50 [2]: 7.4 µM

SMILES: C[C@@]12CCCc3coc(c31)C(=O)c1cc3c(cc12)[C@@]1(O)C[C@@H](O)N2CCS(=O)(=O)C(=C21)C3=O
- IC50 [4]: > 5 µM

SMILES: C[C@@]12CCCc3c(CCO)oc(c31)C(=O)c1cc3c(cc12)C(=O)C=CC3=O
- IC50 [4]: 1.4 µM

SMILES: CC(=O)O[C@@H]1CC[C@@]2(C)[C@H](CC[C@@H]3[C@@H]2CC[C@]2(C)[C@@H]([C@H](C)CC(=O)O)CC[C@@H]32)C1
- CC50 [1]: 23.2 µM
- IC50 [2]: 5.8 µM

SMILES: COc1nc2c(nc1C#N)C(=O)c1ccccc1-2
- IC50 [3]: > 100 µM

SMILES: Nc1ncc(-c2ccc(O)cc2)cc1-c1ccc(O)cc1
- IC50 [5]: > 50 µM

SMILES: CC(=O)c1cc([N+](=O)[O-])c(Sc2ccc(Cl)cc2Cl)s1
- IC50 [6]: 6.5 µM

SMILES: C[C@H](CC(=O)NO)[C@H]1CC[C@H]2[C@@H]3CC[C@@H]4C[C@H](O)CC[C@]4(C)[C@H]3CC[C@]12C
- CC50 [1]: 27.8 µM
- IC50 [2]: 9.7 µM

SMILES: C[C@H](CC(=O)O)[C@H]1CC[C@H]2[C@@H]3CC[C@@H]4CC(=O)CC[C@]4(C)[C@H]3CC[C@]12C
- CC50 [1]: > 50 µM
- IC50 [2]: 32 µM

SMILES: C[C@@]12CCCc3coc(c31)C(=O)c1cc3c(cc12)CC1=C2N(CCS1(=O)=O)[C@@H](O)C[C@]23O
- IC50 [4]: > 5 µM

SMILES: C[C@@]12CCCc3coc(c31)C(=O)c1cc3c(cc12)C(=O)C=C(c1cc(OS(=O)(=O)O)c2cc4c(cc2c1O)C(=O)c1occ2c1[C@@]4(C)CCC2)C3=O
- IC50 [4]: 1.2 µM

SMILES: C[C@H](CC(=O)N1CCOCC1)[C@H]1CC[C@H]2[C@@H]3CC[C@@H]4C[C@H](O)CC[C@]4(C)[C@H]3CC[C@]12C
- CC50 [1]: 8.2 µM
- IC50 [2]: > 100 µM

SMILES: C[C@H](CC(N)=O)[C@H]1CC[C@H]2[C@@H]3CC[C@@H]4C[C@H](O)CC[C@]4(C)[C@H]3CC[C@]12C
- CC50 [1]: 24.5 µM
- IC50 [2]: 27.9 µM

SMILES: CC(=O)c1cc([N+](=O)[O-])c(Sc2ccccc2Cl)s1
- IC50 [6]: 12.9 µM

SMILES: CCc1cc([N+](=O)[O-])c(Sc2cccc(Cl)c2Cl)s1
- IC50 [6]: > 50 µM

SMILES: C[C@H](CC(=O)NCC(=O)O)[C@H]1CC[C@H]2[C@@H]3CC[C@@H]4C[C@H](O)CC[C@]4(C)[C@H]3CC[C@]12C
- CC50 [1]: > 100 µM
- IC50 [2]: > 50 µM

SMILES: C[C@@]12CCCc3coc(c31)C(=O)c1cc3c(cc12)C(=O)C=C([C@]12CCC[C@@]4(C)c5cc6c(OS(=O)(=O)O)ccc(O)c6cc5C(=O)O[C@]14C(=O)OC2)C3=O
- IC50 [4]: 2 µM

SMILES: C[C@H](C1=CC(=O)c2cc3c(cc2C1=O)C(=O)c1occ2c1[C@@]3(C)CCC2)C1=CC(=O)c2cc3c(cc2C1=O)[C@]1(C)CCCc2coc(c21)C3=O
- IC50 [4]: 0.49 µM

SMILES: N#Cc1nc2c(nc1C#N)-c1ccccc1C2=O
- IC50 [3]: 3.5 µM

SMILES: N#Cc1nc2c(nc1C#N)-c1ccc(F)cc1C2=O
- IC50 [3]: 4.3 µM

SMILES: COC(=O)C[C@@H](C)[C@H]1CC[C@H]2[C@@H]3CC[C@@H]4C[C@H](O)CC[C@]4(C)[C@H]3CC[C@]12C
- CC50 [1]: 20.5 µM
- IC50 [2]: > 50 µM

SMILES: C[C@H](CC(=O)O)[C@H]1CC[C@H]2[C@@H]3[C@H](O)C[C@@H]4C[C@H](O)CC[C@]4(C)[C@H]3C[C@H](O)[C@]12C
- CC50 [1]: > 50 µM

SMILES: C[C@@]12CCCc3coc(c31)C(=O)c1cc3c(cc12)C(=O)C=C(C1=CC(=O)c2cc4c(cc2C1=O)C(=O)c1occ2c1[C@@]4(C)CCC2)C3=O
- IC50 [4]: 0.35 µM

SMILES: C[C@H](CC(=O)NCCS(=O)(=O)O)[C@H]1CC[C@H]2[C@@H]3[C@H](O)C[C@@H]4C[C@H](O)CC[C@]4(C)[C@H]3C[C@H](O)[C@]12C
- CC50 [1]: > 50 µM

SMILES: N#CNc1nc2c(nc1C#N)C(=O)c1ccccc1-2
- IC50 [3]: > 100 µM

SMILES: N#Cc1nc2c(nc1N)-c1ccccc1C2=O
- IC50 [3]: > 100 µM

SMILES: C[C@@]12CCCc3coc(c31)C(=O)c1cc3c(cc12)CC1=C2N(CCS1(=O)=O)[C@H](O)C[C@@]23O
- IC50 [4]: > 5 µM

SMILES: C[C@@]12CCCc3coc(c31)C(=O)c1cc3c4c(cc(OS(=O)(=O)O)c3cc12)[C@@]12CCC[C@@]3(C)c5cc6c(OS(=O)(=O)O)ccc(O)c6cc5C(=O)[C@@](O)(OC1)[C@@]23O4
- IC50 [4]: > 5 µM

SMILES: CCc1c(-c2ccc(O)cc2)cnc(N)c1-c1ccc2cn[nH]c2c1
- IC50 [5]: 0.61 µM

Results, then the compound that gave them:

- IC50 [3]: > 100 µM
SMILES: COCCOc1nc2c(nc1C#N)C(=O)c1ccccc1-2

- IC50 [4]: 0.47 µM
SMILES: C[C@@]12CCCc3coc(c31)Cc1cc3c(cc12)C(=O)C(C1=CC(=O)c2cc4c(cc2C1=O)C(=O)c1occ2c1[C@@]4(C)CCC2)=CC3=O

- IC50 [4]: > 5 µM
SMILES: C[C@@]12CCCc3coc(c31)C(=O)c1cc3c(cc12)[C@]1(O)C[C@H](O)N2CCS(=O)(=O)C(=C21)C3=O

- IC50 [6]: 6.4 µM
SMILES: CC(=O)c1cc([N+](=O)[O-])c(Sc2cc(Cl)cc(Cl)c2)s1

- IC50 [3]: 66 µM
SMILES: N#Cc1nc2c(nc1C#N)-c1ccc(O)cc1C2=O

- IC50 [5]: 9.6 µM
SMILES: Nc1ncc(-c2ccccc2)cc1-c1ccc(O)cc1

- IC50 [6]: 11.8 µM
SMILES: CC(=O)c1cc([N+](=O)[O-])c(Sc2ccc(Cl)cc2)s1

- IC50 [7]: > 100 µM
- IC50 [3]: > 100 µM
SMILES: N#Cc1nc2c(nc1C#N)C1(OCCO1)c1ccccc1-2

- IC50 [6]: 13.9 µM
SMILES: CCCCc1cc([N+](=O)[O-])c(Sc2ccc(Cl)cc2Cl)s1

- IC50 [3]: > 100 µM
SMILES: N#Cc1nc2c(nc1N1CCC(F)(F)CC1)-c1ccccc1C2=O

- IC50 [6]: 7 µM
SMILES: CC(=O)c1cc([N+](=O)[O-])c(Sc2cccc(Cl)c2)s1

- IC50 [4]: 1.3 µM
SMILES: C[C@@]12CCC(=O)c3coc(c31)C(=O)c1cc3c(cc12)C(=O)C=CC3=O [HELENAQUINONE]

- IC50 [6]: 20.1 µM
SMILES: CC(O)c1cc([N+](=O)[O-])c(Sc2ccc(Cl)cc2Cl)s1 (stereo unspecified)
